By IC50 is commonly meant the point on the concentration scale where inhibition reaches its midpoint. Read a low IC50 as greater potency in that assay.

Molecules are shown by their SMILES.

The test has as its system Bmi-1. Description: Sandwich ELISA Assay (Bmi-1 ELISA in HT-1080 cells). It counts as cell-based, human. On the procedure: Cell Seeding and Compound Treatment (Day 1):
HT-1080 cells were seeded at 8000 cells/well (50 uL) in 96-well tissue culture plates. After the cells become adherent (3-4 hours), 2× diluted stocks of compounds in 50 uL DMEM containing 1% DMSO (final DMSO concentration was 0.5%) were added and the plates were incubated at 37° C. under 5% CO2 for 40-48 hours
ELISA Plate First Antibody Preparation (Day 2):
The First Antibody (Millipore Mouse, monoclonal to mouse Bmi-1, clone F6, catalog #05-637) diluted to 2 ug/mL in PBS was added (100 uL) to each well of a Nunc MaxiSorp 96-well ELISA plate. The plate was covered with a plate seal and allowed to stand overnight.
Cell Lysate Preparation (Day 3):
Fresh 1× Lysis buffer was prepared on the day of the assay as follows: 1 mM EDTA, 150 mM NaCl, 0.5% Triton-X 100, 10 mM NaF, 20 mM B-Glycerophosphate, 1 mM DTT (in PBS, pH 7.2-7.4) and 1×HALT protease inhibitor cocktail (Pierce #78410).
1× Lysis Buffer (40 uL) was added to each well and the plate was shaken for 5-10 minutes on an orbital shaker to allow cell lysis, then Diluent (1% BSA in PBS in 0.5% NP40) (100 uL) was added to each well.
The Bmi-1 standard curve was prepared in Diluent at the following concentrations of protein: 8000, 4000, 2000, 1000, 500, 250, 125, 0 pg/mL The Bmi-1 Recombinant Protein Standard (Novus Biologicals PCGF4 Recombinant Protein (P01), catalog #H00000648-P01) used in the standard curve was stored at −80° C., and on first thaw, diluted to 10 ug/uL in Blocking Buffer (1% BSA in PBS; BSA: Fisher Scientific Catalog #1600-100) before being aliquoted and refrozen at −80° C. Aliquots can be kept at 4° C. and reused after first thaw, but only for 1-2 weeks. The Bmi-1 Recombinant Protein Standard contains a GST-fusion tag and thus will show up on western blots around 70 Kda.
The prepared ELISA plate was washed 3× with Wash Buffer (0.05% Tween-20 in PBS). The final wash was removed from the plate and the plate was blotted dry on paper towels. Blocking Buffer (300 uL) (1% BSA in PBS) was added per well. The plate was covered with a plate seal and incubated at room temperature for 1 hour. The blocked plate was washed 3× with Wash Buffer, the final wash was removed and the plate was blotted dry on paper towels. The previously prepared samples and standards were added (at 100 uL/well) and the plate was covered with a plate seal and incubated at 4° C. overnight.
The prepared ELISA plate was removed from 4° C., incubated at room temperature for 30 minutes, then washed and blotted dry as previously described for Day 3. The Second Antibody (Cell Signaling Rabbit anti-Bmi-1, Cat#2830) diluted to 1:600 in Blocking Buffer was added (100 uL) to each well, except as needed for background control wells. The plate was covered with a plate seal and incubated for 1.5 hrs at room temperature.
The ELISA plate was washed and blotted dry as previously described. The Third Antibody (Cell Signaling HRP conjugated anti-rabbit IgG (CellSignaling, Cat#:7074) diluted to 1:300 in Blocking Buffer was added (100 uL) to each well, except as needed for background control wells. The plate was incubated for 1 hr at room temperature.
The plate was washed and blotted dry as previously described, then prepared TMB substrate (TMB substrate kit, Pierce catalog #34021) (prepared by mixing kit reagents 1:1) (100 uL) was added per well. The plate was incubated for 20-30 minutes at room temperature in the dark, then Stop Solution (2 M sulfuric acid in water) (50 uL) was added per well. The plates were read at OD450 (experimental) and OD570 (reference).
Background: An ELISA detects its analyte on a solid surface through an enzyme-linked reagent.
`COc1cc(F)c(Nc2nc(-c3c(C)nc4ccccn34)cs2)c(F)c1` [Cpd 57, N-(2,6-difluoro-4-methoxyphenyl)-4-(2-methylimidazo[1,2-a]pyridin-3-yl)-1,3-thiazol-2-amine] had a half-inhibitory concentration (IC50) of less than 500 nM.

For the compound `Cc1nc2ccc(Cl)cn2c1-c1csc(Nc2ccc(N(C)C)cc2)n1` [Cpd 58, N′-[4-(6-chloro-2-methylimidazo[1,2-a]pyridin-3-yl)-1,3-thiazol-2-yl]-N,N-dimethylbenzene-1,4-diamine], the half-inhibitory concentration (IC50) was less than 500 nM.

In turn, `COc1ccc(Nc2nc(-c3c(C)nc4ccc(Cl)cn34)cs2)cc1` [Cpd 59, 4-(6-chloro-2-methylimidazo[1,2-a]pyridin-3-yl)-N-(4-methoxyphenyl)-1,3-thiazol-2-amine] gave a concentration for half-maximal inhibition (IC50) of less than 500 nM. As for `Cc1nc2ccc(Cl)cn2c1-c1csc(Nc2ccc(Cl)cc2)n1` [Cpd 60, 4-(6-chloro-2-methylimidazo[1,2-a]pyridin-3-yl)-N-(4-chlorophenyl)-1,3-thiazol-2-amine], the figure is less than 500 nM; as for `Cc1nc2ccc(Cl)cn2c1-c1csc(Nc2ccc(Br)cc2)n1` [Cpd 61, N-(4-bromophenyl)-4-(6-chloro-2-methylimidazo[1,2-a]pyridin-3-yl)-1,3-thiazol-2-amine], less than 500 nM; as for `CC(=O)c1ccc(Nc2nc(-c3c(C)nc4ccc(Cl)cn34)cs2)cc1` [Cpd 62, 1-(4-{[4-(6-chloro-2-methylimidazo[1,2-a]pyridin-3-yl)-1,3-thiazol-2-yl]amino}phenyl)ethanone], less than 500 nM. The compound `Cc1ccn2c(-c3csc(Nc4ccc5c(c4)OCO5)n3)c(C)nc2c1` [Cpd 63, N-(1,3-benzodioxol-5-yl)-4-(2,7-dimethylimidazo[1,2-a]pyridin-3-yl)-1,3-thiazol-2-amine] showed a half-maximal inhibitory concentration (IC50) of less than 500 nM.

With `Cc1ccn2c(-c3csc(Nc4ccc(N(C)C)cc4)n3)c(C)nc2c1` [Cpd 64, N′-[4-(2,7-dimethylimidazo[1,2-a]pyridin-3-yl)-1,3-thiazol-2-yl]-N,N-dimethylbenzene-1,4-diamine], the IC50 is less than 500 nM. As for `Cc1ccn2c(-c3csc(Nc4ccc(Cl)cc4)n3)c(C)nc2c1` [Cpd 65, N-(4-chlorophenyl)-4-(2,7-dimethylimidazo[1,2-a]pyridin-3-yl)-1,3-thiazol-2-amine], the figure is less than 500 nM. As for `COc1ccc(Nc2nc(-c3c(C)nc4cc(C)ccn34)cs2)cc1F` [Cpd 66, 4-(2,7-dimethylimidazo[1,2-a]pyridin-3-yl)-N-(3-fluoro-4-methoxyphenyl)-1,3-thiazol-2-amine], the figure is less than 500 nM; as for `COc1ccc(Nc2nc(-c3c(C)nc4cc(C)ccn34)cs2)cc1Cl` [Cpd 67, N-(3-chloro-4-methoxyphenyl)-4-(2,7-dimethylimidazo[1,2-a]pyridin-3-yl)-1,3-thiazol-2-amine], less than 500 nM; as for `Cc1ccn2c(-c3csc(Nc4ccc(Br)cc4)n3)c(C)nc2c1` [Cpd 68, N-(4-bromophenyl)-4-(2,7-dimethylimidazo[1,2-a]pyridin-3-yl)-1,3-thiazol-2-amine], less than 500 nM. As for `Cc1ccn2c(-c3csc(Nc4ccc(I)cc4)n3)c(C)nc2c1` [Cpd 69, 4-(2,7-dimethylimidazo[1,2-a]pyridin-3-yl)-N-(4-iodophenyl)-1,3-thiazol-2-amine], the figure is less than 500 nM. `Cc1ccc2nc(C)c(-c3csc(Nc4ccc(N(C)C)cc4)n3)n2c1` [Cpd 70, N′-[4-(2,6-dimethylimidazo[1,2-a]pyridin-3-yl)-1,3-thiazol-2-yl]-N,N-dimethylbenzene-1,4-diamine]: the half-inhibitory concentration (IC50) was less than 500 nM.

With `COc1ccc(Nc2nc(-c3c(C)nc4ccc(C)cn34)cs2)cc1` [Cpd 71, 4-(2,6-dimethylimidazo[1,2-a]pyridin-3-yl)-N-(4-methoxyphenyl)-1,3-thiazol-2-amine], the half-maximal inhibitory concentration (IC50) was less than 500 nM. As for `Cc1ccc2nc(C)c(-c3csc(Nc4ccc5c(c4)OCO5)n3)n2c1` [Cpd 72, N-(1,3-benzodioxol-5-yl)-4-(2,6-dimethylimidazo[1,2-a]pyridin-3-yl)-1,3-thiazol-2-amine], the figure is less than 500 nM; as for `COc1ccc(Nc2nc(-c3c(C)nc4ccc(C)cn34)cs2)cc1Cl` [Cpd 73, N-(3-chloro-4-methoxyphenyl)-4-(2,6-dimethylimidazo[1,2-a]pyridin-3-yl)-1,3-thiazol-2-amine], less than 500 nM. As for `COCCOc1ccc(Nc2nc(-c3c(C)nc4ccc(C)cn34)cs2)cc1` [Cpd 74, 4-(2,6-dimethylimidazo[1,2-a]pyridin-3-yl)-N-[4-(2-methoxyethoxy)phenyl]-1,3-thiazol-2-amine], the figure is less than 500 nM; as for `CCN(CC)c1ccc(Nc2nc(-c3c(C)nc4ccc(C)cn34)cs2)cc1` [Cpd 75, N′-[4-(2,6-dimethylimidazo[1,2-a]pyridin-3-yl)-1,3-thiazol-2-yl]-N,N-diethylbenzene-1,4-diamine], less than 500 nM; as for `Cc1ccc2nc(C)c(-c3csc(Nc4ccc(I)cc4)n3)n2c1` [Cpd 76, 4-(2,6-dimethylimidazo[1,2-a]pyridin-3-yl)-N-(4-iodophenyl)-1,3-thiazol-2-amine], less than 500 nM. As for `Cc1ccc2nc(C)c(-c3csc(Nc4ccc(Br)cc4)n3)n2c1` [Cpd 77, N-(4-bromophenyl)-4-(2,6-dimethylimidazo[1,2-a]pyridin-3-yl)-1,3-thiazol-2-amine], the figure is less than 500 nM; as for `Cc1ccc2nc(C)c(-c3csc(Nc4ccc(Cl)cc4)n3)n2c1` [Cpd 78, N-(4-chlorophenyl)-4-(2,6-dimethylimidazo[1,2-a]pyridin-3-yl)-1,3-thiazol-2-amine], less than 500 nM.

On to `Ic1ccc(Nc2nc(-c3cnc4ccccn34)cs2)cc1` [Cpd 79, 4-(imidazo[1,2-a]pyridin-3-yl)-N-(4-iodophenyl)-1,3-thiazol-2-amine], for which the IC50 was less than 500 nM. As for `Cc1nc2ncccn2c1-c1csc(N(C)c2ccc(Br)cc2)n1` [Cpd 80, N-(4-bromophenyl)-N-methyl-4-(2-methylimidazo[1,2-a]pyrimidin-3-yl)-1,3-thiazol-2-amine], the figure is less than 500 nM; as for `Cc1nc2ccc(Br)cn2c1-c1csc(Nc2ccc(N(C)C)cc2)n1` [Cpd 81, N′-[4-(6-bromo-2-methylimidazo[1,2-a]pyridin-3-yl)-1,3-thiazol-2-yl]-N,N-dimethylbenzene-1,4-diamine], less than 500 nM. As for `Cc1nc2ccc(Br)cn2c1-c1csc(Nc2ccc3c(c2)OCO3)n1` [Cpd 82, N-(1,3-benzodioxol-5-yl)-4-(6-bromo-2-methylimidazo[1,2-a]pyridin-3-yl)-1,3-thiazol-2-amine], the figure is less than 500 nM; as for `Ic1ccc(Nc2nc(-c3cnc4ncccn34)cs2)cc1` [Cpd 83, 4-(imidazo[1,2-a]pyrimidin-3-yl)-N-(4-iodophenyl)-1,3-thiazol-2-amine], 500 to 1000 nM; as for `COc1ccc(Nc2nc(-c3c(C)nc4ncccn34)cs2)cc1OC` [Cpd 84, N-(3,4-dimethoxyphenyl)-4-(2-methylimidazo[1,2-a]pyrimidin-3-yl)-1,3-thiazol-2-amine], less than 500 nM. As for `Cc1ccc(Nc2nc(-c3c(C)nc4ncccn34)cs2)cc1` [Cpd 85, 4-(2-methylimidazo[1,2-a]pyrimidin-3-yl)-N-(4-methylphenyl)-1,3-thiazol-2-amine], the figure is less than 500 nM; as for `CCc1ccc(Nc2nc(-c3c(C)nc4ncccn34)cs2)cc1` [Cpd 86, N-(4-ethylphenyl)-4-(2-methylimidazo[1,2-a]pyrimidin-3-yl)-1,3-thiazol-2-amine], less than 500 nM; as for `Cc1nc2ncccn2c1-c1csc(Nc2ccc(C(C)C)cc2)n1` [Cpd 87, 4-(2-methylimidazo[1,2-a]pyrimidin-3-yl)-N-[4-(propan-2-yl)phenyl]-1,3-thiazol-2-amine], less than 500 nM.
